Experimental findings from ChEMBL document CHEMBL5604063, “ASAP - DENV-2 NS2B-NS3 protease fluorescence dose response” (2024) are described below.

In test [1] the target is T1, Genome polyprotein (dengue virus type 2, UniProt P29990). In kind it is functional, Thailand/16681/1984.
The target of test [2] is T1, Genome polyprotein. In kind it is functional, Thailand/16681/1984. This is another data set of the same source.

The term IC50 denotes the midpoint of a concentration-inhibition curve. A low value points to greater potency.

The structures appear in SMILES notation. Where “and” joins values, the source holds several entries; their conditions need not be identical. Identical values can stand only once.

T1 sequence (P29990 1346-1475 limits assumed): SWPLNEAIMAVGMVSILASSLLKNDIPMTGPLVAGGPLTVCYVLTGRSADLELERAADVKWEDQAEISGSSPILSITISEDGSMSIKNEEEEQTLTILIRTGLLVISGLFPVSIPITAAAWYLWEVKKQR
T1 sequence (P29990 1476-2093 limits assumed): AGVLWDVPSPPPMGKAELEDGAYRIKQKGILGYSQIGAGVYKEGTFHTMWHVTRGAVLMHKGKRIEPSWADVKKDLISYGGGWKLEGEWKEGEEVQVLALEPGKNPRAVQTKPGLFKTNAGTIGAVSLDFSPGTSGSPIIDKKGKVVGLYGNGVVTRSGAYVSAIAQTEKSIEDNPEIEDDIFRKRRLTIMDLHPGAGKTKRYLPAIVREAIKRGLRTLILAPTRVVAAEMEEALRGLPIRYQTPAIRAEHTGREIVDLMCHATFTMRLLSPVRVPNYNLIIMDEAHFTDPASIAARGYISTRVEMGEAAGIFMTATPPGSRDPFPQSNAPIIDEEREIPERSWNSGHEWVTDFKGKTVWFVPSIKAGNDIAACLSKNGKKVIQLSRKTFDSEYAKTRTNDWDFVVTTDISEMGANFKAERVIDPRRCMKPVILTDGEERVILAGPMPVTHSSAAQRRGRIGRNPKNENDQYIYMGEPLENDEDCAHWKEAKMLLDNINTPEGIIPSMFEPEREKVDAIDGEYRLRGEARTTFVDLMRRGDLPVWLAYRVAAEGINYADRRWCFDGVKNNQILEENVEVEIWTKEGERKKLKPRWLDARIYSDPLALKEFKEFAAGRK

For `CC(=O)N1CCC([C@H](NC(=O)OCc2ccccc2)C(=O)Nc2cccc(CN)c2)CC1`, the results for the IC50 in test [1] and in test [2] were above 99.5 µM and above 100 µM, respectively.
The corresponding values for `FC(F)(F)Oc1cc(Cl)cc2c(CN3CCC(c4cscn4)CC3)c[nH]c12` are above 99.5 µM and above 100 µM.
Regarding `CCCCSc1ccc(Cl)cc1C(=O)Nc1cccc(CN)c1`, the figures for the IC50 in test [1] and in test [2] were above 99.5 µM and above 100 µM, respectively.
For `Cc1ncc(C(=O)Nc2cccc(CN)c2)cc1NC(=O)OCc1ccccc1`, the results for the IC50 in test [1] and in test [2] were above 99.5 µM and above 100 µM, respectively.
Turning to `NCc1cccc(NC(=O)c2cc(NC(=O)OCc3ccccc3)cc3c2OCCO3)c1`, the IC50 is above 99.5 µM in test [1] and above 100 µM in test [2].
The corresponding values for `NCc1cccc(NC(=O)[C@H](NC(=O)OCc2ccccc2)C2CCN(C(=O)C3CCOCC3)CC2)c1` are above 99.5 µM and above 100 µM.
Turning to `CNCCS(=O)(=O)N1CCC([C@H](NC(=O)OCc2ccccc2)C(=O)Nc2cccc(CN)c2)CC1`, the IC50 is above 99.5 µM in test [1] and above 100 µM in test [2].
On to `CCOCC(=O)N1CCC([C@H](NC(=O)OCc2ccccc2)C(=O)Nc2cccc(CN)c2)CC1`, for which the IC50 in test [1] was above 99.5 µM; in test [2], above 100 µM.
Turning to `O=C1COc2c(cccc2N2CCN(Cc3c[nH]c4ccccc34)CC2)N1`, the IC50 in test [1] is above 99.5 µM; in test [2], above 100 µM.
The corresponding values for `CCN(C)S(=O)(=O)N1CCC([C@H](NC(=O)OCc2ccccc2)C(=O)Nc2cccc(CN)c2)CC1` are above 99.5 µM and above 100 µM.
The corresponding values for `NCc1cccc(NC(=O)c2cc(NC(=O)OCc3ccccc3)cc(C(N)=O)c2)c1` are above 99.5 µM and above 100 µM.
With `NCCCc1ccccc1NC(=O)c1cc(Cl)cc(NC(=O)OCc2ccccc2)c1`, the results for the IC50 in test [1] and in test [2] were above 99.5 µM and above 100 µM, respectively.
For the compound `CC(C)CC(=O)N1CCC([C@H](NC(=O)OCc2ccccc2)C(=O)Nc2cccc(CN)c2)CC1`, the results for the IC50 in test [1] and in test [2] were above 99.5 µM and above 100 µM, respectively.
The corresponding values for `COCCOc1ccc(Cl)cc1C(=O)Nc1cccc(CN)c1` are above 99.5 µM and above 100 µM.
The corresponding values for `NCc1cccc(NC(=O)c2cc(Cl)ccc2OC2CCCC2)c1` are above 99.5 µM and above 100 µM.
The corresponding values for `CC(C)N1CCC([C@H](NC(=O)OCc2ccccc2)C(=O)Nc2cccc(CN)c2)CC1` are above 99.5 µM and above 100 µM.
`CN(C)Cc1cccc(C(=O)Nc2cccc(CN)c2)c1`: the IC50 in test [1] is above 99.5 µM; in test [2], above 100 µM.
The corresponding values for `NCc1nc(CNC(=O)c2cc(Cl)cc(NC(=O)OCc3ccccc3)c2)cs1` are above 99.5 µM and above 100 µM.
As for `NCc1cccc(CS(=O)(=O)c2cc(Cl)cc(NC(=O)OCc3ccccc3)c2)c1`, the IC50 in test [1] was above 99.5 µM; in test [2], above 100 µM.
The corresponding values for `CS(=O)(=O)Nc1ccc(Cl)cc1C(=O)Nc1cccc(CN)c1` are above 99.5 µM and above 100 µM.
As to `O=C(Nc1cc(Cl)cc(C(=O)Nc2cccc([C@H]3CCNC3)c2)c1)OCc1ccccc1`, the IC50 in test [1] is 33.3 µM and 58.3 µM and 41.4 µM; in test [2], 95.4 µM and > 100 µM.
Regarding `NCc1cccc(NC(=O)[C@H](NC(=O)OCc2ccccc2)C2CCN(Cc3ccccn3)CC2)c1`, the IC50 is above 99.5 µM in test [1] and above 100 µM in test [2].
The corresponding values for `Cc1nccn1CCOc1cccc([C@H](NC(=O)OCc2ccccc2)C(=O)Nc2cccc(CN)c2)c1` are above 99.5 µM and above 100 µM.
As to `NCc1cccc(NC(=O)[C@H](NC(=O)OCc2ccccc2)c2cccc(OCc3ccncc3)c2)c1`, the IC50 in test [1] is above 99.5 µM; in test [2], above 100 µM.
The corresponding values for `Cc1cc(CN)cc(NC(=O)c2cc(Cl)cc(NC(=O)OCc3ccccc3)c2)c1` are 42.2 µM and above 100 µM.
Consider `CCN1CC[C@H](COc2cccc([C@H](NC(=O)OCc3ccccc3)C(=O)Nc3cccc(CN)c3)c2)C1`, for which the IC50 in test [1] is above 99.5 µM; in test [2], above 100 µM.
For `NC12CCC(CNC(=O)c3cc(Cl)cc(NC(=O)OCc4ccccc4)c3)(CC1)OC2`, the results for the IC50 in test [1] and in test [2] were above 99.5 µM and above 100 µM, respectively.
The corresponding values for `Clc1ccc(-c2cc(CN3CCC(c4cscn4)CC3)[nH]n2)cc1` are above 99.5 µM and above 100 µM.
The corresponding values for `NCc1cccc(NC(=O)c2cc(Cl)cc(F)c2F)c1` are above 99.5 µM and above 100 µM.
The corresponding values for `CCS(=O)(=O)c1ccc(Cl)cc1C(=O)Nc1cccc(CN)c1` are above 99.5 µM and above 100 µM.
Regarding `Cn1cc(C(=O)N2CCC([C@H](NC(=O)OCc3ccccc3)C(=O)Nc3cccc(CN)c3)CC2)cn1`, the values for the IC50 in test [1] and in test [2] were above 99.5 µM and above 100 µM, respectively.
The corresponding values for `Cn1nc([C@@H]2CCCN2)nc1NC(=O)c1cc(Cl)cc(NC(=O)OCc2ccccc2)c1` are above 99.5 µM and above 100 µM.
Turning to `CC(C)(C#N)CS(=O)(=O)N1CCC([C@H](NC(=O)OCc2ccccc2)C(=O)Nc2cccc(CN)c2)CC1`, the IC50 in test [1] is above 99.5 µM; in test [2], above 100 µM.
The corresponding values for `NCCCc1ccnc(NC(=O)c2cc(Cl)cc(NC(=O)OCc3ccccc3)c2)c1` are 48.2 µM and above 100 µM.
The corresponding values for `NCc1cccc(NC(=O)[C@H](NC(=O)OCc2ccccc2)C2CCN(C(=O)c3ccco3)CC2)c1` are above 99.5 µM and above 100 µM.
The corresponding values for `NCc1cccc(NC(=O)c2cc(NC(=O)OCc3ccccc3)cc(C(F)(F)F)c2F)c1` are above 99.5 µM and above 100 µM.
Regarding `O=c1ccc(N2CCN(Cc3c[nH]c4ccccc34)CC2)n[nH]1`, the IC50 in test [1] is above 99.5 µM; in test [2], above 100 µM.
On to `NCc1cccc(NC(=O)c2cc(Cl)cc(C3CC3)c2)c1`, for which the IC50 in test [1] was above 99.5 µM; in test [2] it was above 100 µM.
The corresponding values for `NCc1cccc(NC(=O)c2cc3c(c(NC(=O)OCc4ccccc4)c2)OCC3)c1` are above 99.5 µM and above 100 µM.
The corresponding values for `Cc1c(CN)cccc1NC(=O)c1cc(Cl)cc(NC(=O)OCc2ccccc2)c1` are above 99.5 µM and above 100 µM.
The corresponding values for `NCc1cccc(NC(=O)[C@H](NC(=O)OCc2ccccc2)C2CCN(S(=O)(=O)c3cccnc3)CC2)c1` are above 99.5 µM and above 100 µM.
`NCc1cccc(NC(=O)c2cc(Cl)cc3c2NCCC3)c1`: the IC50 was above 99.5 µM in test [1] and above 100 µM in test [2].
Consider `O=C(Nc1cc(Cl)cc(C(=O)NCc2n[nH]c3c2CNCC3)c1)OCc1ccccc1`, for which the results for the IC50 in test [1] and in test [2] were above 99.5 µM and above 100 µM, respectively.
The corresponding values for `CC(C)N1C(=O)C[C@H](C(=O)Nc2cccc(CN)c2)[C@H]1c1ccc(Cl)c(F)c1` are above 99.5 µM and above 100 µM.
The corresponding values for `c1cnc2[nH]cc(C3CCN(Cc4c[nH]c5ccncc45)CC3)c2c1` are above 99.5 µM and above 100 µM.
Take `CN(C)Cc1cccc(NC(=O)[C@H](NC(=O)OCc2ccccc2)c2ccc(OCc3ccccc3)cc2)c1`: the IC50 in test [1] is above 99.5 µM; in test [2] it was above 100 µM.
The corresponding values for `NCc1cccc(NC(=O)[C@H](NC(=O)OCc2ccccc2)c2cccc(OC[C@H]3COCCO3)c2)c1` are above 99.5 µM and above 100 µM.
The corresponding values for `NCc1cccc(NC(=O)[C@H](NC(=O)OCc2ccccc2)C2CCN(C(=O)C3CCCCC3)CC2)c1` are above 99.5 µM and above 100 µM.
The corresponding values for `NCc1cccc(NC(=O)c2cc(Cl)cc3c2OCC3)c1` are above 99.5 µM and above 100 µM.
On to `NCc1ccc(O)c(NC(=O)c2cc(Cl)cc(NC(=O)OCc3ccccc3)c2)c1`, for which the results for the IC50 in test [1] and in test [2] were 74.5 µM and above 100 µM, respectively.
The corresponding values for `NCc1cccc(NC(=O)[C@H](NC(=O)OCc2ccccc2)C2CCN(C(=O)Cc3ccccc3)CC2)c1` are above 99.5 µM and above 100 µM.
The corresponding values for `c1nc(C2CCN(Cc3cc(C4CCOCC4)[nH]n3)CC2)cs1` are above 99.5 µM and above 100 µM.
The corresponding values for `COc1cc(NC(=O)OCc2ccccc2)cc(C(=O)Nc2cccc(CN)c2)c1OC` are above 99.5 µM and above 100 µM.
Turning to `CN(C)CCOc1ccc(Cl)cc1C(=O)Nc1cccc(CN)c1`, the IC50 in test [1] is above 99.5 µM; in test [2] it was above 100 µM.
As to `N#Cc1cccc2[nH]cc(CN3CCC(c4cscn4)CC3)c12`, the IC50 in test [1] is above 99.5 µM; in test [2], above 100 µM.
The corresponding values for `O=C1Nc2ncccc2C[C@H]1NCc1n[nH]c2ccccc12` are above 99.5 µM and above 100 µM.
For the compound `Cc1ccc(NC(=O)c2cc(Cl)cc(NC(=O)OCc3ccccc3)c2)cc1CN`, the IC50 in test [1] is > 99.5 µM and 95.8 µM; in test [2], above 100 µM.
Take `NCc1cccc(NC(=O)[C@H](NC(=O)OCc2ccccc2)C2CCN(C(=O)c3ccccc3)CC2)c1`: the half-inhibitory concentration (IC50) in test [1] is above 99.5 µM; in test [2], above 100 µM.
The corresponding values for `c1cncc(-c2cc(CN3CCC(c4cscn4)CC3)n[nH]2)c1` are above 99.5 µM and above 100 µM.
`Cc1ncc(NC(=O)OCc2ccccc2)cc1C(=O)Nc1cccc(CN)c1`: the results for the IC50 in test [1] and in test [2] were above 99.5 µM and above 100 µM, respectively.
The corresponding values for `NCc1cn(CCNC(=O)c2cc(Cl)cc(NC(=O)OCc3ccccc3)c2)nn1` are above 99.5 µM and above 100 µM.
The corresponding values for `Cc1ocnc1COc1cccc([C@H](NC(=O)OCc2ccccc2)C(=O)Nc2cccc(CN)c2)c1` are above 99.5 µM and above 100 µM.
For the compound `CCOCCS(=O)(=O)N1CCC([C@H](NC(=O)OCc2ccccc2)C(=O)Nc2cccc(CN)c2)CC1`, the IC50 is above 99.5 µM in test [1] and above 100 µM in test [2].
The corresponding values for `N#Cc1cccc(N2CCN(Cc3c[nH]c4ccccc34)CC2)c1` are above 99.5 µM and above 100 µM.
Take `COCCN1C(=O)C[C@H](C(=O)Nc2cccc(CN)c2)[C@H]1c1ccc(Cl)c(F)c1`: the IC50 was above 99.5 µM in test [1] and above 100 µM in test [2].
The corresponding values for `NCc1cccc(NC(=O)c2cc(Cl)cc3c2CCC3)c1` are above 99.5 µM and above 100 µM.
